We go through 5 compounds from patent US10421784B2, “Cell penetrating peptides for intracellular delivery of molecules” (AADIGEN, LLC, priority 2012, dated 2019).

Like-named read-outs stand apart in the source and are kept apart here. Where a SMILES comes first, the peptide text is derived from it.

In data set [1] the test system is non-transformed HS68 fibroblasts. Description: Cell proliferation after VEPEP-9 mediated delivery. It is filed as cell-based, Human. On the procedure:
(§1) Adherent HS68 fibroblasts, HeLa, PC3, MCF-7, SCK3-Her2, PBMC cell lines (from American Type Culture Collection (ATCC)) were cultured in Dulbecco's Modified Eagle's Medium supplemented with 2 mM glutamine, 1% antibiotics (streptomycin 10,000 μg/ml, penicillin, 10,000 IU/ml) and 10% (w/v) foetal calf serum (FCS), at 37° C. in a humidified atmosphere containing 5% CO2. Stock solutions of VEPEP-9/peptide particles were prepared by complexing 1 μM peptide with VEPEP-9 peptides at a molar ratio of 1/20 for 30 min at 37° C. Lower concentrations of VEPEP-9-carrier/peptide (from 500 nM to 1 μM) were obtained by serial dilution of the stock complexes in PBS, in order to preserve the same VEPEP-9-carrier/peptide ratio. Stock solutions of VEPEP-9/siRNA particles were prepared by complexing 100 nM siRNA with VEPEP-9 peptides at a molar ratio of 1/20 for 30 min at 37° C. Lower concentrations of VEPEP-9/siRNA (from 20 nM to 0.125 nM) were obtained by serial dilution of the stock complexes in PBS, in order to preserve the same VEPEP-9/siRNA ratio. […] For cdk2 derived peptides, cell proliferation was monitored after 24 and 48 hrs. For siRNA targeting Cyclin B1, Cyclin B1 mRNA level was determined 24 hrs following transduction, using Quantigen (Pommies Inc.). […]

Data set [2] concerns Hela, MCF7, HEK-2 and U2OS cells. Description: Cell proliferation after VEPEP-9 mediated delivery. It is filed as cell-based. On the procedure:
as §1

Another data set relates to cultured cells. Description: Cell cycle progression / cyclin B1 levels in cultured cells. It counts as cell-based.
For the next data set, the system named is SKB3. Description: Inhibition of cancer cell proliferation by delivered drugs. It counts as cell-based.
The test system of the next data set is MCF7. The description is as above. It is filed as cell-based. To be noted: Homo sapiens.
In data set [3] the test system is PC3, A549, or SCK-3-HEK2-xenografted mice. Description: Tumour growth and cyclin B1 mRNA, siRNA controls. It counts as in vivo. To be noted: complexed with NANOPEP-9e, 0.5 mg/kg. The method, then: For siRNA treatment: Two to three weeks after tumour implant, when tumour size reached about 100 mm^3, animals were treated by intratumoral or intravenous injection, every 3 days, with a solution of 0.1 ml of either free Cyc-B1 siRNA (50 or 100 μg), control siRNA Cyc-B3 or Cyc-B1 siRNA (1, 5, 10 μg) complexed with NANOPEP-9 at a 1/20 molar ratio.
Athymic female nude mice (6-8 weeks of age) were subcutaneously inoculated into the flank with 1×10^6 PC3 (prostate cancer), A549 (lung cancer) or SCK-3-HEK2 (ovarian cancer) cells in 100 μl PBS. Two to three weeks after tumour implant, when tumour size reached about 100 mm^3, animals were treated by intratumoral or intravenous injection, every 3 days, with a solution of 0.1 ml of either free Cyc-B1 siRNA (50 or 100 μg), control siRNA Cyc-B3 or Cyc-B1 siRNA (5, 10 μg) complexed with NANOPEP-9b or NANOPEP-9e particles. The “core” shell of the particles was formed using VEVEP-9b or VEPEP-9e peptide at a molar ratio of 20/1 with a siRNA targeting cycline B1. siRNA stock solutions are in 50 mM Tris, 0.5 mM EDTA buffer or in RNase free water. VEPEP-9 peptides were solubilised in water and stock solution of peptide was sonicated for 10 min in a water bath before complex formation. Then VEPEP-9/siRNA complexes were formed by adding siRNA into the peptide solution and incubating at 37° C. for 20-30 minutes to allow the carrier peptide/siRNA complexes to form. NANOPEP-9 particles contain a VEPEP-9/siRNA “core shell” surrounded by additional VEPEP-9 at a 1/20 molar ratio.
The potential of NANOPEP-9b or NANOPEP-9e to deliver cyclin B1 siRNA in vivo was evaluated on PC3, A549, or SCK-3-HEK2-xenografted mice (FIGS. 13A-13B). The effect of local intratumoral administration of NANOPEP-9/siRNA particles (molar ratio 20/1) on the growth of established subcutaneous tumours was evaluated. At day 50, tumor sizes in the control cohort, injected with PBS increased by about 3 to 5 fold. […] At day 48, it was validated that the Cyc-B1 siRNA mediated inhibition of tumour growth was directly associated with a decrease in the level of cyclin B1 mRNA.

A short description of data set [4]: Fluorescence titration, VEPEP-9/cargo binding. To be noted: cargo SHM. The method, then: (§2) Fluorescence experiments were performed on a PTI spectrofluorimeter at 25° C. in a NaCl 154 mM buffer. Intrinsic Trp-fluorescence of VEPEP-9 was excited at 290 nm and emission spectrum was recorded between 310 and 400 nm, with a spectral band-pass of 2 and 8 nm for excitation and emission, respectively. FITC- or CY5-fluorescence of labelled-peptide or Oligonucleotide were excited at 492 nm and emission recorded between 500 and 580 nm. For VEPEP-9/peptide interaction, 0.5 μM of FITC-labelled peptide was titrated by increasing concentrations of VEPEP-9. For VEPEP-9/oligonucleotide interaction, 200 nM of FITC or CY5-labelled oligodeoxynucleotide (ODN) was titrated by increasing concentrations of VEPEP-9. All measurements were corrected for the dilution and curve fitting were performed by using Grafit software (Erithacus).
(§3) VEPEP-9 peptide form stable complexes with peptides and ODN. The binding of cargos to VEPEP-9 was monitored by fluorescence spectroscopy using the both intrinsic Trp group of VEPEP-9 (3 to 5 Trp-residues) and extrinsic fluorescently labelled cargoes (using Cy3, Cy5 or FITC). Curve fitting reveal that VEPEP-9 strongly binds the different cargoes with dissociation constant in the nanomolar range (Tables 1 and 2 and FIG. 2).
(§4) VEPEP-9 peptides form stable particles with different cargoes including peptide, siRNA, PNA and small aromatic (FIG. 2). The dissociation constant for peptide, siRNA, PNA and small hydrophobic molecule ranges between 10-100 nM, 5-50 nM, 5-50 nM and 0.02 to 0.2 μM, respectively, depending on the nature of the dyes and of the cargoes.

The subject of the next data set is PNA (15 mer -PNA). Description: Fluorescence titration, VEPEP-9/cargo binding. Conditions: cargo PNA (15 mer). On the procedure: as §2, §3, §4
The next data set deals with Peptide (C4). Kind of data set: Fluorescence titration, VEPEP-9/cargo binding. Conditions: cargo peptide (C4). On the procedure: as §2, §3, §4
The test system of another data set is siRNA. Kind of data set: Fluorescence titration, VEPEP-9/cargo binding. Conditions: cargo siRNA. On the procedure:
as §2, §3, §4

Data set [5] in a line: Fluorescence titration, VEPEP-9/SHM binding. The method, then:
as §2
Binding of small molecule cargoes has been investigated in detailed depending on the nature of the SHM. Several hydrophobic molecules have been used (Daunomycin, Paclitaxel, doxorubicin, porphyrin), as well as charged molecules (nucleotide, nucleoside and fluorescent dyes).

[6] abbreviates: drug complexed with VEPEP-9a at molar ratio 1/20, read-out: VEPEP-9a IC50.
Setting [7] is: drug complexed with VEPEP-9b at molar ratio 1/20, read-out: VEPEP-9b IC50.
The mark [8] stands for this setting: drug complexed with VEPEP-9f at molar ratio 1/20, read-out: VEPEP-9f IC50.
Where [9] appears, read: drug complexed with VEPEP-9d at molar ratio 1/20, read-out: VEPEP-9d IC50.
[10] abbreviates: free drug, read-out: Free drug IC50.

`CSCC[C@H](NC(=O)[C@H](CCCNC(=N)N)NC(=O)[C@@H](NC(=O)[C@H](CCC(N)=O)NC(=O)[C@H](CCCCN)NC(=O)[C@@H](N)CCCCN)C(C)C)C(=O)N[C@@H](C)C(=O)N[C@@H](Cc1c[nH]cn1)C(=O)N[C@@H](CC(C)C)C(=O)N[C@H](C(=O)N[C@@H](CC(C)C)C(=O)N[C@H](C(=O)O)[C@@H](C)O)C(C)C` [C4, KKQVRMAHLVLT] (H-KKQVRMAHLVLT-OH; N-terminus and C-terminus assumed) gave a reduction of proliferation in data set [1] of 10%. In addition, the “concentration sufficient to block proliferation” value in data set [2] turned out to be 200 nM. In addition, the “concentration at which 4 N accumulation was optimally obtained” value in the data set on cultured cells (VEPEP-9 mediated delivery) came out at 200 nM.

Usually IC50 stands for the concentration that gives 50% inhibition. In the case of `CC(=O)O[C@H]1C(=O)[C@@]2(C)[C@H]([C@H](OC(=O)c3ccccc3)[C@]3(O)C[C@H](OC(=O)[C@H](O)[C@@H](NC(=O)c4ccccc4)c4ccccc4)C(C)=C1C3(C)C)[C@]1(OC(C)=O)CO[C@@H]1C[C@@H]2O` [Taxol, taxol], the concentration for half-maximal inhibition (IC50) in the data set on SKB3 (setting [6]) stood at 700 nM; in the data set on SKB3 (setting [7]), 650 nM; in the data set with SKB3 (setting [8]), 900 nM; in the data set on SKB3 (setting [9]), 700 nM; with SKB3 (setting [10]), 10000 nM; in the data set with MCF7 (setting [6]), 800 nM. Moreover, the IC50 in the data set on MCF7 (setting [7]) is 120 nM; with MCF7 (setting [8]) it was 800 nM; with MCF7 (setting [9]), 500 nM; in the data set on MCF7 (setting [10]), 7000 nM.

On to “Cyc-B3: mismatch cyclin B1 siRNA harbouring two mutations; sense 5′GGUGAAGAUCAGCAUGGCATT3′ (antisense UGCCAUGUCGAUCUUCACCTT; chemistry not given here)”, for which, in the data set with cultured cells (200 nM, complexed with VEPEP-9 at a 20/1 ratio), the “effect on cyclin B1 levels and cell cycle progression” value is on record as “no effect”. The “inhibition of tumour growth” value in [3] is “unable to inhibit tumour growth”.

A word on the Kd: it is the constant that tells how readily two partners part at equilibrium. High values mean lower affinity, low ones higher affinity. Turning to “X1WWGSWATPRRRWWR [VEPEP-9e, X1 is beta-A or S]”, the Binding entry in data set [4] was “Yes”; in the data set on PNA (15 mer -PNA) it was “Yes”; in the data set with Peptide (C4), “yes”; in the data set on siRNA it was “yes”; in [5] (cargo AZT) it was “yes”; in data set [5] (cargo Doxorubicin), “yes”. The Binding result in [5] (cargo FAM-guanosine) and in data set [5] (cargo porphyrin) was “yes” each time. Besides, the Kd in data set [4] was 20 to 100 nM; at PNA (15 mer -PNA), 5 to 50 nM; at siRNA it was 5 to 50 nM; in data set [5] (cargo AZT), 90 nM; in data set [5] (cargo Doxorubicin), 50 nM; in [5] (cargo FAM-guanosine) it was 1100 nM. Besides, binding in data set [5] (cargo porphyrin) was put at a Kd of 200 nM. The “effect on cyclin B1 levels and cell cycle progression” value with cultured cells (carrier alone (100 μM)) is reported as “no effect”.

On to “X1WWRWWASWARSWWR [VEPEP-9d, X1 is beta-A or S]”, for which the Binding result in data set [4] is listed as “Yes”; with PNA (15 mer -PNA) it was “Yes”; with Peptide (C4) it was “yes”; in the data set on siRNA, “yes”; in [5] (cargo AZT), “yes”; in data set [5] (cargo Doxorubicin), “yes”. Besides, the Binding entry in data set [5] (cargo FAM-guanosine) and in [5] (cargo porphyrin) was “yes” throughout. For the same compound, the dissociation constant Kd in data set [4] is 20 to 100 nM; on PNA (15 mer -PNA) it was over 50 nM; on siRNA it was over 200 nM; in data set [5] (cargo AZT), 20 nM; in data set [5] (cargo Doxorubicin), 90 nM; in data set [5] (cargo FAM-guanosine) it was 400 nM. The equilibrium dissociation constant (Kd) in [5] (cargo porphyrin) amounted to 250 nM.
